According to patent publication US6348456B1, “Method of treating chemical dependency in mammals and a composition therefor” (priority 1994, dated 2002):

Test: plasma concentration of ibogaine and its metabolite 12-hydroxy ibogamine over time after ibogaine administration to a human patient
Format: in vivo
Procedure: An amount of ibogaine was administered to a human patient, and the plasma concentration of both ibogaine and a metabolite thereof, 12-hydroxy ibogamine, were observed as a function of time.
FIG. 1 illustrates the result of administering a certain dosage of ibogaine to a human patient, where the plasma concentration of ibogaine is measured over time. In essence, a peak plasma concentration of about 1,100 ng/ml is observed at administration. It is also notable that at about 11 hours after ibogaine administration, plasma concentration of ibogaine diminished to less than 400 ng/ml. After about 24 hours, plasma concentration diminished to less than 200 ng/ml. Thus, ibogaine is rather quickly eliminated by the patient.
By contrast, FIG. 2 illustrates the variation of noribogaine plasma concentration with time as a metabolite from the same ibogaine administration described above. In essence, a peak plasma concentration of noribogaine of about 590 ng/ml was reached only after about 11 hours from administration. Thereafter, even at 24 hours, a plasma concentration of greater than 500 ng/ml was observed.

SMILES | plasma concentration of ibogaine (after about 24 hours) | plasma concentration of ibogaine (at about 11 hours after ibogaine administration) | peak plasma concentration of ibogaine (ibogaine administered, (FIG. 1)) | plasma half-life compared with ibogaine (after ibogaine administration) | plasma concentration of noribogaine (at 24 hours, metabolite after ibogaine administration) | time from administration to peak plasma concentration of noribogaine (noribogaine as metabolite after ibogaine administration) | peak plasma concentration of noribogaine (noribogaine as metabolite from the same ibogaine administration (FIG. 2))
CC[C@H]1CC2C[C@H]3c4[nH]c5ccc(OC)cc5c4CCN(C2)C13 [ibogaine, reference compound] | less than 200 ng/ml | less than 400 ng/ml | about 1,100 ng/ml |  |  |  | 
CC[C@H]1C[C@H]2C[C@H]3c4[nH]c5ccc(O)cc5c4CCN(C2)[C@@H]13 [noribogaine, 12-hydroxy ibogamine] |  |  |  | much longer plasma half-life than ibogaine | greater than 500 ng/ml | about 11 hours | about 590 ng/ml
